Where “and” joins values, the source holds several entries; their conditions need not be identical. Equal entries are not always repeated. Where two headings read alike, the source gives them in different places. Where no end group is shown, it is not given here.

The subject of data set [1] is C. difficile 630. The experiment in a line: microbe, parasite or virus in culture. To be noted: Clostridioides difficile, 630, 24 h.
For data set [2], the system named is C. difficile 630. The note with it: lowest concentration killing ≥99.9%, after 24 h incubation plated on BHI agar, 37°C, anaerobic, triplicate.
For data set [3], the system named is C. difficile 630. The note with it: C. difficile 630, BHI broth, 24 h, 37°C, anaerobic, OD 600 nm; triplicate.

Regarding `CN[C@H](CC(C)C)C(=O)N[C@H]1C(=O)N[C@@H](CC(N)=O)C(=O)N[C@H]2C(=O)N[C@H]3C(=O)N[C@H](C(=O)N[C@H](C(=O)O)c4cc(O)cc(O)c4-c4cc3ccc4O)[C@H](O)c3ccc(c(Cl)c3)Oc3cc2cc(c3O[C@@H]2O[C@H](CO)[C@@H](O)[C@H](O)[C@H]2O[C@H]2C[C@](C)(N)[C@H](O)[C@H](C)O2)Oc2ccc(cc2Cl)[C@H]1O` [Vancomycin], the MIC with C. difficile 630 [1] is 0.488 µg/mL and 0.34 µM.
KWKLFKKIGAVLKVL-NH2 [CM]: the “Minimum bactericidal concentration (MBC)” value with C. difficile 630 [2] came to 2.21 µM. The “MIC” value against C. difficile 630 [3] amounted to 2.21 µM.
For the compound KWKLFKKIGAVLKVLA-NH2 [CM-A], in the data set on C. difficile 630 [2], the “Minimum bactericidal concentration (MBC)” value turned out to be 4.24 µM. The “Reduction of viability of Caco-2 cells” value with Caco-2 cells (Caco-2) is 11%. The “Viability of Caco-2 cells” value in the data set on Caco-2 cells (Caco-2, 33.94 µM) worked out at 40%. Moreover, in the data set on C. difficile 630 [3], the “MIC” value came to 1.06 µM.
